Assays:
JAK3 = target: T1, JAK3 (Homo sapiens, UniProt P52333); test: JAK kinase activity inhibition, TR-FRET (JAK3); assay type: biochemical; conditions: TR-FRET kinase assay
T1 sequence (P52333 1-1124): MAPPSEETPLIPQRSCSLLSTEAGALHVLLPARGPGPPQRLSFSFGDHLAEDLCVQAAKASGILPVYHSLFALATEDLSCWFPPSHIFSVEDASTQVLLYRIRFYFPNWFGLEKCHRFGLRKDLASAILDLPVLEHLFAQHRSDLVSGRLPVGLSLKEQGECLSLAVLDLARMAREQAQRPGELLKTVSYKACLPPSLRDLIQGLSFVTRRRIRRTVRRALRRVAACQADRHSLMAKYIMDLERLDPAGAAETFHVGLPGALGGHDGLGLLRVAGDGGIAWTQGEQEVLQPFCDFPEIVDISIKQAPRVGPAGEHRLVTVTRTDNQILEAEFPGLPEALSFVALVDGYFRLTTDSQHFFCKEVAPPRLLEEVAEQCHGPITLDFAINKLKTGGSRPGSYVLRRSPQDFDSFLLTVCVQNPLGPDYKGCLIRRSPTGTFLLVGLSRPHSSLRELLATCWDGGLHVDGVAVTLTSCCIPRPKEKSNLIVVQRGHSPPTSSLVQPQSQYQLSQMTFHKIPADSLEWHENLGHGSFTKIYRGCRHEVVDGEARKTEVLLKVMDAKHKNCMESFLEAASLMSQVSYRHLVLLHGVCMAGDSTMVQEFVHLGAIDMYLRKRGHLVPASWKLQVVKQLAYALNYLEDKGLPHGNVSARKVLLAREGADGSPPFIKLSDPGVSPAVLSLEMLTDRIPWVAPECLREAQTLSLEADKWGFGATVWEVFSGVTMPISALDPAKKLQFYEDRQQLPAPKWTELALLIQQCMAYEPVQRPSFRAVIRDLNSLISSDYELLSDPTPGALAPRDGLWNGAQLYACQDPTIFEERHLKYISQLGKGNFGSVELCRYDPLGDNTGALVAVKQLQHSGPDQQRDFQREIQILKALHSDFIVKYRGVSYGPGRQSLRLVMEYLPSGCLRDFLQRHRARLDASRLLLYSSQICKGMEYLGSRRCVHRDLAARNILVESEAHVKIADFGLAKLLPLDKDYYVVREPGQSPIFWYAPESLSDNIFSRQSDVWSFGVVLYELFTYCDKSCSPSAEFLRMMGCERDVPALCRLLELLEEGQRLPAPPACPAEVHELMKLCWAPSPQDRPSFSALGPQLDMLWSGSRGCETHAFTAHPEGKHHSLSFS
Summary of the method: (§1)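 Steps: compound dilutions added; JAK kinase (0.1-20 nM) in HEPES/MgCl2 buffer added; peptide substrate and ATP mix started the reaction, 0.5-5 h at room temperature; EDTA and labeled antibody added, 1-24 h further. IC50 derived from 620/665 nm signals by four-parameter nonlinear fitting.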

[1] = system: JAK-STAT signal pathway of U266 cells; test: Inhibition of cellular JAK-STAT signal pathway (STAT3 phosphorylation) in U266 cells; assay type: cell-based, human; conditions: Homo sapiens, U-266, INF-a 1000 U/mL stimulation
Summary of the method: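 U266 cells (100-300 K/well) preincubated 2 h at room temperature with serially diluted compound, then stimulated 15 min with IFN-α at 1000 U/mL final. After lysis, STAT3 phosphorylation read by LANCE Ultra TR-FRET (Eu antibody 0.5 nM, ULight antibody 5 nM, overnight) at 665 nm; IC50 from 4-parameter fit of inhibition versus DMSO and negative controls.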

JAK2 = JAK2 (Homo sapiens, UniProt O60674); test: JAK kinase activity inhibition, TR-FRET (JAK2); assay type: biochemical; conditions: TR-FRET kinase assay
JAK2, sequence (O60674 whole entry): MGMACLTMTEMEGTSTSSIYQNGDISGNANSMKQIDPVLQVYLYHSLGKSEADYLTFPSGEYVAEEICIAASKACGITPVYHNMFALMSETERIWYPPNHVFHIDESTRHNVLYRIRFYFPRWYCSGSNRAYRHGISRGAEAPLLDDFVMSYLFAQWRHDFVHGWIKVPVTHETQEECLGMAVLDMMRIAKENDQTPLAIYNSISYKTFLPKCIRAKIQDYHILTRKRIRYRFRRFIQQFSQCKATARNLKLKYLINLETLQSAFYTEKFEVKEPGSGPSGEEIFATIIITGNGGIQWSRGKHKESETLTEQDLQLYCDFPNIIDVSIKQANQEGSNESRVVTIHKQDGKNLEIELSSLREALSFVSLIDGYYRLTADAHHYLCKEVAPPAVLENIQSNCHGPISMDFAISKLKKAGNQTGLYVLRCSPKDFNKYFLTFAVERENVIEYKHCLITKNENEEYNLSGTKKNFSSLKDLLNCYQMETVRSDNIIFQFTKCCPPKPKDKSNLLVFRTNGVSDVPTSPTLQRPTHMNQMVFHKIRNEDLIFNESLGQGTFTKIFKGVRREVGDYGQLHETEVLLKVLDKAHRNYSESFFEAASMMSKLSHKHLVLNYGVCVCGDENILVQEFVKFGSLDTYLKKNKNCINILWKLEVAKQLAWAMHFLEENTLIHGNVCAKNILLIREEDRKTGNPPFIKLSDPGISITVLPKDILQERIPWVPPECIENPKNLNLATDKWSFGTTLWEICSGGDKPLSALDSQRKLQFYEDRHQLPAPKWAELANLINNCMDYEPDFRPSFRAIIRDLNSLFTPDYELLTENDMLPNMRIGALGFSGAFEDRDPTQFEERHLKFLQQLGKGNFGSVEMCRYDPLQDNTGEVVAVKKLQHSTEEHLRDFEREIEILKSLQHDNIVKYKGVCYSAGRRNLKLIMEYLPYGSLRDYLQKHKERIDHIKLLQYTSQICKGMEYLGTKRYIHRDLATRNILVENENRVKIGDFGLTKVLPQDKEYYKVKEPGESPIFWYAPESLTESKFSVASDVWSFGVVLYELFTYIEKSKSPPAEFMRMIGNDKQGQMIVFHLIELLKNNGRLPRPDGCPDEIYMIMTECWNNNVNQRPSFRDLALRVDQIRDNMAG
Summary of the method: as §1

TYK2 = TYK2 (Homo sapiens, UniProt P29597); test: JAK kinase activity inhibition, TR-FRET (TYK2); assay type: biochemical; conditions: TR-FRET kinase assay
TYK2, sequence (P29597 whole entry): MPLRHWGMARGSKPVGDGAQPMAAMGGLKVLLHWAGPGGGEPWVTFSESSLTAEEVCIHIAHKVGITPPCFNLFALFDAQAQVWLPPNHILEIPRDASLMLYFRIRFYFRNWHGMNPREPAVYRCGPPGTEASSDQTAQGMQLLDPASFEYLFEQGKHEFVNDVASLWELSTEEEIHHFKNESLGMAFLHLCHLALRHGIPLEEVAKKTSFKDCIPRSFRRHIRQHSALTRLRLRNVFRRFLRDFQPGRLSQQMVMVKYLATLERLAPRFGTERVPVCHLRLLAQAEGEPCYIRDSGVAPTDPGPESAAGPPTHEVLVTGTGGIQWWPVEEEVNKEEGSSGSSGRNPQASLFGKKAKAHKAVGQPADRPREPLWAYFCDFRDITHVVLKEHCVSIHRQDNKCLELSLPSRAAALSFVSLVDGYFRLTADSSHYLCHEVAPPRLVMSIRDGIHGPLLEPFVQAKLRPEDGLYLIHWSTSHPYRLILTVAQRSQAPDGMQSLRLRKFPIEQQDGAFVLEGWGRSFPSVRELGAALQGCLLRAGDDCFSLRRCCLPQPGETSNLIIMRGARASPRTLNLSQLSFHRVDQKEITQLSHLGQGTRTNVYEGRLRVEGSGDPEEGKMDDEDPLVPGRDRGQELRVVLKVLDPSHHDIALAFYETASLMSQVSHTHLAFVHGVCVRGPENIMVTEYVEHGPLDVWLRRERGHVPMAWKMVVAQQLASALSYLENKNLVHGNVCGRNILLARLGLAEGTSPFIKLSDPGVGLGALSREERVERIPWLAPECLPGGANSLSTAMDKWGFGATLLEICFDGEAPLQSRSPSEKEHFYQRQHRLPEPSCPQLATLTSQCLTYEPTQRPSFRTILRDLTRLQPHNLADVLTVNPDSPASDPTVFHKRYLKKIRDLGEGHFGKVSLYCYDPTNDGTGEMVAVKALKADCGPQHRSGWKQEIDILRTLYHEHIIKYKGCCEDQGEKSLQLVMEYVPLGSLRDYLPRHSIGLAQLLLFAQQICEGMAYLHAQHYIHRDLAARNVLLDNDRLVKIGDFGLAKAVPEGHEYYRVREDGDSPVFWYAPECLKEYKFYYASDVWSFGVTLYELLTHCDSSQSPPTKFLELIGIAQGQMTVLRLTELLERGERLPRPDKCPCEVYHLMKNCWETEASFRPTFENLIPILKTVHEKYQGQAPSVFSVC
Summary of the method: as §1

| Compound | IC50 (JAK3) [nM] | IC50 [1] [nM] | IC50 (JAK2) [nM] | IC50 (TYK2) [nM] |
| --- | --- | --- | --- | --- |
| Cc1cc(Nc2nc(N[C@@H]3C[C@H]4CCC[C@@H](C3)N4S(=O)(=O)N3CC(C#N)C3)nc3sccc23)n[nH]1 [Embodiment 238] | 0.71 | 1.15 | 0.44 | 0.12 |
| COc1ccc2c(Nc3cc(C)[nH]n3)nc(N[C@@H]3C[C@H]4CC[C@@H](C3)N4CCC#N)nc2c1 [Embodiment 169, 3-((3-exo)-3-((7-methoxyl-4-((5-methyl-1H-pyrazol-3-yl)amino)quinazolin-2-yl)amino)-8-azabicyclo[3.2.1]oct-8-yl)propionitrile] | 28.8 | 9.32 | 1.07 | 0.5 |
| Cc1cc(Nc2nc(N[C@@H]3C[C@H]4CCC[C@@H](C3)N4C(=O)c3ccccn3)nc3sccc23)n[nH]1 [Embodiment 260, ((3-exo)-3-((4-((5-methyl-1H-pyrazol-3-yl)amino)thieno[2,3-d]pyrimidin-2-yl)amino)-9-azabicyclo[3.3.1]non-9-yl)(pyridin-2-yl)methanone] | 3.83 | 1.1 | 0.36 | 0.225 |
| Cc1cc(Nc2nc(N[C@@H]3C[C@H]4CC[C@@H](C3)N4CCC#N)nc3sc(C)cc23)n[nH]1 [Embodiment 277, 3-((3-exo)-3-((6-methyl-4-((5-methyl-1H-pyrazol-3-yl)amino)thieno[2,3-d]pyrimidin-2-yl)amino)-8-azabicyclo[3.2.1]oct-8-yl)propionitrile] | 8.26 | 0.49 | 1.01 | 0.58 |
| Cc1cc(Nc2nc(N[C@@H]3C[C@H]4CC[C@@H](C3)N4CCC#N)nc3ccsc23)n[nH]1 [Embodiment 60, 3-((3-exo)-3-((4-((5-methyl-1H-pyrazol-3-yl)amino)thieno[3,2-d]pyrimidin-2-yl)amino)-8-azabicyclo[3.2.1]oct-8-yl)propionitrile] | – | 2.9 | – | 0.46 |
| Cc1cc(Nc2nc(N(C)[C@@H]3C[C@H]4CCC[C@@H](C3)N4C(=O)CN3CCN(C)CC3)nc3sccc23)n[nH]1 [Embodiment 257, 1-((3-exo)-3-(methyl(4-((5-methyl-1H-pyrazol-3-yl)amino)thieno[2,3-d]pyrimidin-2-yl)amino)-9-azabicyclo[3.3.1]non-9-yl)-2-(4-methylpiperazin-1-yl)ethane-1-one] | 19.9 | 1.45 | 0.83 | 0.2 |
| Cc1cc(Nc2nc(N[C@@H]3C[C@H]4CCC[C@@H](C3)N4CCC#N)nc3scnc23)n[nH]1 [Embodiment 278, 3-((3-exo)-3-((7-((5-methyl-1H-pyrazol-3-yl)amino)thiazolo[5,4-d]pyrimidin-5-yl)amino)-9-azabicyclo[3.3.1]non-9-yl)propionitrile] | 7.05 | 0.29 | 1.34 | 0.98 |
| Cc1cc(Nc2nc(N[C@@H]3C[C@H]4CC[C@@H](C3)N4CCC#N)nc3cc(Br)ccc23)n[nH]1 [Embodiment 170, 3-((3-exo)-3-((7-bromine-4-((5-methyl-1H-pyrazol-3-yl)amino)quinazolin-2-yl)amino)-8-azabicyclo[3.2.1]oct-8-yl)propionitrile] | – | 3.35 | – | 0.225 |
| Cc1cc(Nc2nc(N[C@@H]3C[C@H]4CC[C@@H](C3)N4S(=O)(=O)N3CC(C#N)C3)nc3cc(Cl)ccc23)n[nH]1 [Embodiment 214] | 133 | 17.7 | 0.82 | 0.455 |
| Cc1cc(Nc2nc(N[C@@H]3C[C@H]4CC[C@@H](C3)N4S(=O)(=O)N3CC(C#N)C3)nc3sccc23)n[nH]1 [Embodiment 237, 1-(((3-exo)-3-((4-((5-methyl-1H-pyrazol-3-yl)amino)thieno[2,3-d]pyrimidin-2-yl)amino)-8-azabicyclo[3.2.1]oct-8-yl)sulfonyl)azetindin-3-formonitrile] | 3.62 | 0.56 | 0.79 | 0.32 |
| Cc1cc(Nc2nc(N[C@@H]3C[C@H]4CCC[C@@H](C3)N4C(=O)CN3CCOCC3)nc3sccc23)n[nH]1 [Embodiment 246, 1-((3-exo)-3-((4-((5-methyl-1H-pyrazol-3-yl)amino)thieno[2,3-d]pyrimidin-2-yl)amino)-9-azabicyclo[3.3.1]non-9-yl)-2-morpholinoethane-1-one] | 6.87 | 1 | 0.71 | 1.88 |
| Cc1cnc(Nc2cc3ncccc3c(N[C@@H]3C[C@H]4CC[C@@H](C3)N4CCC#N)n2)s1 [Embodiment 1, 3-((3-exo)-3-((7-((5-methylthioazol-2-yl)amino)-1,6-diazanaphthalen-5-yl)amino)-8-azabicyclo[3.2.1]oct-8-yl)propionitrile] | 2.68 | 0.15 | 0.69 | 0.55 |
| CNCC(=O)N1[C@@H]2CCC[C@H]1C[C@H](Nc1nc(Nc3cc(C)[nH]n3)c3ccsc3n1)C2 [Embodiment 247, 1-((3-exo)-3-((4-((5-methyl-1H-pyrazol-3-yl)amino)thieno[2,3-d]pyrimidin-2-yl)amino)-9-azabicyclo[3.3.1]non-9-yl)-2-(methylamino)-ethane-1-one] | 2.4 | 2.27 | 0.73 | 0.12 |
| Cc1cc(Nc2nc(N[C@@H]3C[C@H]4CC[C@@H](C3)N4S(=O)(=O)N3CC(C#N)C3)nc3ccccc23)n[nH]1 [Embodiment 213, 1-(((3-exo)-3-((4-((5-methyl-1H-pyrazol-3-yl)amino)quinazolin-2-yl)amino)-8-azabicyclo[3.2.1]oct-8-yl)sulfonyl)azetindin-3-formonitrile] | 12.6 | 11.1 | 0.3 | 0.46 |
| Cc1cc(Nc2nc(N[C@@H]3C[C@H]4CC[C@@H](C3)N4CCC#N)nc3cc(Cl)ccc23)n[nH]1 [Embodiment 171, 3-((3-exo)-3-((7-chloro-4-((5-methyl-1H-pyrazol-3-yl)amino)quinazolin-2-yl)amino)-8-azabicyclo[3.2.1]oct-8-yl)propionitrile] | 23.3 | 0.85 | 0.67 | 0.6 |
